Details of data set [1]: method as in Turina et al., 2006. To be noted: ref Turina et al., 2006; cited from earlier work.
The conditions of data set [2]: intravenous administration of 1 mg/kg; ref Gavini et al., 2011; cited from earlier work.
A short description of data set [3]: Stability of geraniol in phosphate buffered saline. The format is physicochemical. To be noted: 37°C, for at least 8 h, data not shown. An excerpt:
During the experiment drug solutions were shaken continuously and gently in an oscillating water-bath.

The test system of data set [4] is Oxidized glutathione reductase (GSSG-red). Put plainly: Oxidized glutathione reductase activity in liver after 28-day treatment. The format is in vivo, C57BL/6 mice. To be noted: mice liver. As to the method:
At the end of treatment, mice were killed. […] Oxidized glutathione reductase activity (GSSG-red). […] The generation of NADP^+ from NADPH during the reduction of GSSG was recorded at 340 nm for 5 min at 37°C. GSSG-red activity was calculated using the extinction coefficient of 6.22 per mM x cm, and expressed as mol of NADPH consumed/min per mg protein ([Bonamassa et al., 2016]).

Data set [5] is described as follows: Hematochemical analysis and lipid serum profile after 28-day treatment. In kind it is in vivo, C57BL/6 mice. As to the method:
(§1) At the end of treatment, mice were killed.
For each animal, blood samples were collected in both heparinized and non-heparinized tubes. Plasma from heparinized samples was obtained after tabletop centrifugation at 2,000 rpm, while blood in non-heparinized tubes was centrifuged at 1,500 rpm for 10 min after complete coagulation, to obtain serum. Biochemical and hematological analyses were assessed by the Department of Veterinary Medical Science, University of Bologna.

A short description of data set [6]: Intravenous infusion pharmacokinetics, whole blood by HPLC. The format is in vivo, Sprague-Dawley rats. How it is done: The samples were extracted and analyzed as described above, with the only difference that the samples withdrawn within 20 min after infusion were diluted 1:10 using the H2O:CH3CN mixture (50:50 v/v) before analysis. Four rats ware employed for intravenous infusions of geraniol. […] The calculations were performed using the computer program GraphPad Prism. […] At the end of the oral administration and at fixed time points, blood samples (100 μL) were collected and CSF samples (50 μL) were withdrawn using the cysternal puncture method described by [van den Berg et al. (2002)], which requires a single needle stick and allows the collection of serial (40–50 μL) CSF samples that are virtually blood-free ([Dalpiaz et al., 2014]). A total volume of approximately 150 μL of CSF was collected during the experimental session. […] In particular, blood withdrawals for all programmed time points were repeated four times with a corresponding number of rats; CSF withdrawals for all programmed time points were repeated at least four times with a number of rats allowing no more than three CSF withdrawals from each of them. […] All the calculations were performed using the computer program Graph Pad Prism.

Data set [7] concerns NAD(P)H: quinone reductase (NQO1). Kind of data set: NAD(P)H:quinone reductase activity in liver after 28-day treatment. The format is in vivo, C57BL/6 mice. To be noted: mice liver, geraniol 120 mg/kg by gavage for 28 days. From the text:
At the end of treatment, mice were killed. […] NAD(P)H:quinone reductase (NQO1) activity.

The subject of data set [8] is UDP glucuronosyl-transferase (UDPGT). Put plainly: UDP-glucuronosyl transferase activity in liver after 28-day treatment. In kind it is in vivo, C57BL/6 mice. To be noted: mice liver. As to the method: At the end of treatment, mice were killed. […] Experiments were performed in the presence or absence of Triton X-100 (0.2%) as a detergent, in order to improve the assay sensitivity ([Canistro et al., 2008]).

A further data set has as its system Catalase (CAT). Kind of data set: Catalase activity in liver after 28-day treatment. The format is in vivo, C57BL/6 mice. To be noted: mice liver. As to the method: At the end of treatment, mice were killed. […] Catalase (CAT) activity. The reaction was started in a quartz cuvette containing 50 mM potassium phosphate buffer and cytosol sample by adding 30 mM H2O2.

Data set [9] concerns NCM460 cell monolayers. Put plainly: Permeation studies across NCM460 cell monolayers (Millicell inserts, HPLC). In kind it is in vitro ADME, human. To be noted: A → B higher than B → A, P < 0.001. As to the method: Differentiation to NCM460 cell monolayers was performed essentially according to the method reported by [Ferretti et al. (2015)]. Briefly, after two passages, confluent NCM460 cells were seeded at a density of 10^5 cells/mL in a 1:1 ratio of fresh and spent culture medium in 12-well Millicell inserts (Millipore, Milan, Italy) consisting of 1.0 μm pore size polyethylene terephthalate (PET) filter membranes, whose surface was 1.12 cm^2. Filters were presoaked for 24 h with fresh culture medium, and then the upper compartment (apical, A) received 400 μL of the diluted cells, whereas the lower compartment (basolateral, B) received 2 mL of the medium in the absence of cells. […] The integrity of the cell monolayers was monitored by measuring the transepithelial electrical resistance (TEER) by means of a voltmeter (Millicell-ERS; Millipore, Milan, Italy). The measured resistance value was multiplied by the area of the filter to obtain an absolute value of TEER, expressed as Ω⋅cm^2. […] The homogeneity and integrity of the cell monolayer were also monitored by phase contrast microscopy. […]
Permeation experiments were performed in triplicate in both the apical-to-basolateral (A → B) and basolateral-to-apical (B → A) directions. […] TEER values were monitored before and after each experiment. […]
The permeabilities were determined for the filters alone (Pf), and for the filters covered with cells (Pt). […]

Data set [10] concerns Superoxide dismutase (SOD). Kind of data set: Superoxide dismutase activity in liver after 28-day treatment. To be noted: mice liver. The format is in vivo, C57BL/6 mice. How it is done:
At the end of treatment, mice were killed. […] Superoxide dismutase activity (SOD): Superoxide dismutase activity was determined according to Misra and Fridovich’s assay ([Misra and Fridovich, 1972]). Briefly, the activity was assayed spectophotometrically at […] by monitoring the generation of adenochrome, one of the main products of epinephrine autoxidation at pH 10.2. The dejection of autoxidation was used to calculate SOD activity using the extinction coefficient of 4.02 per mM × cm, and expressed as mol of epinephrine oxidized/min per mg protein, derived by subtracting each test curve from the epinephrine autoxidation standard curve ([Bonamassa et al., 2016]).

For data set [11], the system named is Glutathione S-transferase (GST). Kind of data set: Glutathione S-transferase activity in liver after 28-day treatment. In kind it is in vivo, C57BL/6 mice. To be noted: mice liver. As to the method: as §1
The incubation mixture for measuring overall GST activity contained 1 mM glutathione + 1 mM 1-chloro-2,4-dinitrobenzene (CDNB) in methanol + 0.025 mL of sample in a final volume of 2.5 mL 0.1 M phosphate Na^+/K^+ buffer (pH 6.5). The product of the reaction of the thiol group of glutathione with the electrophilic group of CDNB was read at 340 nm (ε = 9.6 mM^-1 cm^-1) ([Vivarelli et al., 2016a]).

On the set-up of data set [12]: method as in Turina et al., 2006. To be noted: ref Turina et al., 2006; cited from earlier work. This is another data set of the same source.
The subject of data set [13] is NCM460 cell monolayers. To be noted: P-gp efflux transporter substrate; ref Marchetti et al., 2016; cited from earlier work.
Setting [14] is: geraniol 120 mg/kg by gavage for 28 days.
Setting [15] is: mice blood, geraniol 120 mg/kg by gavage for 28 days.
The mark [16] stands for this setting: mice serum, geraniol 120 mg/kg by gavage for 28 days.
Setting [17] is: 120 mg/kg 28 days, versus controls.

As for `CC12CCC(CC1=O)C2(C)C` (stereo not shown) [camphor], in [1], the “membrane/water partition coefficient (Pm/w)” value is listed as 3.99.

Take `CCCC(=O)O[C@H]1[C@H](C)O[C@@H](O[C@H]2[C@H](N(C)C)[C@@H](O)[C@H](O[C@H]3[C@@H](CC=O)C[C@@H](C)[C@@H](O)/C=C/C=C/C[C@@H](C)OC(=O)C[C@@H](O)[C@@H]3OC)O[C@@H]2C)C[C@@]1(C)OC(=O)CC` [rokitamycin]: in data set [2], the “concentration values in whole blood” value was “up to 7 μg/mL”.

What is called half-life is the time needed for the level to fall by half in the phase considered. `CC(C)=CCC/C(C)=C/CO` [geraniol, 3,7-dimethylocta-trans-2,6-dien-1-ol]: the “stability in PBS” value in [3] is reported as “highly stable”. In addition, the “oxidized glutathione reductase (GSSG-red) induction with respect to controls” value in data set [4] (120 mg/kg 28 days, P < 0.01) is recorded as “up to 56%”. In addition, the “Oxidized glutathione reductase (GSSG-red), Mean” value in [4] (setting [14]) came out at 118.31 µmol/mg/min. In data set [5] (setting [15]), the ALT came out at 34 ± 5 U/l and the AST is listed as 149 ± 24 U/l. Moreover, in data set [5] (setting [16]), the Cholesterol came out at 94 ± 7 mg/dL and the HDL cholesterol is 66 ± 4 mg/dL. Besides, the liver toxicity result in data set [5] (mice, 120 mg/kg of geraniol for 4 weeks) is “no signs of liver toxicity”. The “membrane/water partition coefficient (Pm/w)” value in data set [1] was 4.38. The “drug concentration in the rat bloodstream after intravenous infusion” value in data set [6] (iv infusion 12.5 mg (50 mg/kg), end of infusion) worked out at 298 ± 19 µg/mL. Further, the AUC in [6] (male, Sprague-Dawley, rat, iv 50 mg/kg, blood, within 3 h, read-out: AUC, intravenous administration (converted)) was 126 µg·h/mL. Further, the half-life in data set [6] (male, Sprague-Dawley, rat, iv infusion 12.5 mg (50 mg/kg), apparent first order kinetics, read-out: half-life in the bloodstream) was determined as 12.5 ± 1.5 min. Besides, the “NAD(P)H: quinone reductase (NQO1), Mean” value in data set [7] was found to be 12.43 nmol/mg/min. Further, the “effect on Phase II enzymes (UDPGT)” value in data set [8] (setting [17]) is on record as “not affected”. In data set [8] (setting [14]), the “UDP glucuronosyl-transferase (UDPGT), Mean” value amounted to 3.89 nmol/mg/min. The “catalase (CAT) induction with respect to controls” value with Catalase (CAT) (120 mg/kg 28 days, P < 0.01) is recorded as “up to 29%”. Also, the “Catalase (CAT), Mean” value in the data set on Catalase (CAT) (setting [14]) was found to be 2.55 µmol/mg/min. The “permeation rate apical to basolateral versus opposite direction” value in the data set on NCM460 cell monolayers [9] was “roughly sixfold”. Besides, in [10] (setting [17]), the “effect on Superoxide dismutase (SOD) activity” value is reported as “not affected”. Besides, in data set [10] (setting [14]), the “Superoxide dismutase (SOD), Mean” value came out at 13.65 nmol/mg/min. The “effect on Phase II enzymes (GST)” value in data set [11] (setting [17]) is “not affected”. Further, the “Glutathione S-transferase (GST), Mean” value in data set [11] (setting [14]) came out at 2.60 µmol/mg/min. Moreover, the n-octanol/water partition coefficient in data set [12] is reported as 2.65.

As for `CCN(CC)C(=O)Nc1ccc(OCC(O)CNC(C)(C)C)c(C(C)=O)c1` (stereo not shown) [celiprolol], the “direction of transport across NCM460 monolayers” value in the data set with NCM460 cell monolayers [13] was “rate from basolateral to apical compartments being significantly higher than its rate in the opposite direction”.

As to `CC12CCC(CC1)C(C)(C)O2` [cineole], the “membrane/water partition coefficient (Pm/w)” value in [1] is given as 3.37.

For `CC1CCC(C(C)C)C(O)C1` (stereo not shown) [menthol], the “membrane/water partition coefficient (Pm/w)” value in [1] was 2.44.
